Laboratory results reported in PubChem BioAssay (NCI).
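Step 1: Grow cells in 96-well plates. Step 2: Expose to compound for 48 hours at 5 concentrations. Step 3: Interpolate endpoints linearly; if unreached, use highest concentration. The concentration for 50% growth inhibition is given as GI50. Definition used: TGI = concentration required for complete inhibition of growth.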

Columns and labels:
Assay in all cases: inhibition of tumour cell growth, NCI panel, 48 h
OVCAR-5 ovarian = tested on: OVCAR-5 ovarian
RXF 393 renal = tested on: RXF 393 renal
T-47D breast = tested on: T-47D breast
M14 melanoma = tested on: M14 melanoma
COLO 205 colon = tested on: COLO 205 colon
MCF7 breast = tested on: MCF7 breast
IGROV1 ovarian = tested on: IGROV1 ovarian
BT-549 breast = tested on: BT-549 breast
SK-MEL-2 melanoma = tested on: SK-MEL-2 melanoma
A549 NSCLC = tested on: A549 NSCLC
EKVX NSCLC = tested on: EKVX NSCLC
MDA-MB-435 = tested on: MDA-MB-435
NCI/ADR-RES ovarian = tested on: NCI/ADR-RES ovarian
HS 578T breast = tested on: HS 578T breast
K-562 leukemia = tested on: K-562 leukemia
MDA-MB-231 breast = tested on: MDA-MB-231 breast
HL-60(TB) leukemia = tested on: HL-60(TB) leukemia
SK-MEL-5 melanoma = tested on: SK-MEL-5 melanoma
OVCAR-4 ovarian = tested on: OVCAR-4 ovarian
HCC-2998 colon = tested on: HCC-2998 colon
SK-MEL-28 melanoma = tested on: SK-MEL-28 melanoma
HOP-92 NSCLC = tested on: HOP-92 NSCLC
SK-OV-3 ovarian = tested on: SK-OV-3 ovarian
OVCAR-3 ovarian = tested on: OVCAR-3 ovarian
NCI-H460 lung = tested on: NCI-H460 lung
SF-268 CNS = tested on: SF-268 CNS
A498 renal = tested on: A498 renal
CCRF-CEM leukemia = tested on: CCRF-CEM leukemia
HCT-15 colon = tested on: HCT-15 colon
U251 CNS = tested on: U251 CNS
ACHN renal = tested on: ACHN renal
UACC-62 melanoma = tested on: UACC-62 melanoma
PC-3 prostate = tested on: PC-3 prostate
HT29 colon = tested on: HT29 colon
NCI-H226 lung = tested on: NCI-H226 lung
KM12 colon = tested on: KM12 colon
CAKI-1 renal = tested on: CAKI-1 renal
SNB-19 CNS = tested on: SNB-19 CNS
786-0 renal = tested on: 786-0 renal
SNB-75 CNS = tested on: SNB-75 CNS
RPMI-8226 leukemia = tested on: RPMI-8226 leukemia
NCI-H23 lung = tested on: NCI-H23 lung
TK-10 renal = tested on: TK-10 renal
UACC-257 melanoma = tested on: UACC-257 melanoma
HOP-62 NSCLC = tested on: HOP-62 NSCLC
MALME-3M melanoma = tested on: MALME-3M melanoma
DU-145 prostate = tested on: DU-145 prostate
MOLT-4 leukemia = tested on: MOLT-4 leukemia
UO-31 renal = tested on: UO-31 renal
SR leukemia = tested on: SR leukemia
SW-620 colon = tested on: SW-620 colon
SN12C renal = tested on: SN12C renal
NCI-H522 lung = tested on: NCI-H522 lung
LOX IMVI melanoma = tested on: LOX IMVI melanoma
SF-539 CNS = tested on: SF-539 CNS
OVCAR-8 ovarian = tested on: OVCAR-8 ovarian
HCT-116 colon = tested on: HCT-116 colon
SF-295 CNS = tested on: SF-295 CNS

## CCOC(=O)Cn1c(-c2nonc2NC(=O)c2ccccc2F)nc2ccccc21
OVCAR-5 ovarian
  GI50: 26.3 µM
  TGI: > 100 µM
RXF 393 renal
  GI50: 5.67 µM
  TGI: > 62 µM
T-47D breast
  GI50: 44.1 µM
  TGI: > 100 µM
M14 melanoma
  GI50: 74.1 µM
  TGI: > 100 µM
COLO 205 colon
  GI50: > 35.6 µM
  TGI: > 100 µM
MCF7 breast
  GI50: 1.64 µM
  TGI: > 100 µM
IGROV1 ovarian
  GI50: 9.85 µM
  TGI: > 100 µM
BT-549 breast
  GI50: 5.91 µM
  TGI: > 93.7 µM
SK-MEL-2 melanoma
  GI50: 41.3 µM
  TGI: > 85.5 µM
A549 NSCLC
  GI50: 0.768 µM
  TGI: > 56.7 µM
EKVX NSCLC
  GI50: 28 µM
  TGI: > 100 µM
MDA-MB-435
  GI50: 2.25 µM
  TGI: > 100 µM
NCI/ADR-RES ovarian
  GI50: 4.74 µM
  TGI: > 100 µM
HS 578T breast
  GI50: 32.4 µM
  TGI: > 100 µM
K-562 leukemia
  GI50: 0.505 µM
  TGI: > 100 µM
MDA-MB-231 breast
  GI50: 28.7 µM
  TGI: > 100 µM
HL-60(TB) leukemia
  TGI: > 100 µM
SK-MEL-5 melanoma
  GI50: 0.539 µM
  TGI: > 100 µM
OVCAR-4 ovarian
  GI50: 11.8 µM
  TGI: > 100 µM
HCC-2998 colon
  GI50: 31.7 µM
  TGI: > 100 µM
SK-MEL-28 melanoma
  GI50: 17.9 µM
  TGI: > 100 µM
HOP-92 NSCLC
  GI50: 22.1 µM
  TGI: 67.9 µM
SK-OV-3 ovarian
  GI50: 21.3 µM
  TGI: > 100 µM
OVCAR-3 ovarian
  GI50: 7.07 µM
  TGI: > 100 µM
NCI-H460 lung
  GI50: 0.579 µM
  TGI: > 100 µM
SF-268 CNS
  GI50: 1.89 µM
  TGI: > 100 µM
A498 renal
  GI50: 68 µM
  TGI: > 100 µM
CCRF-CEM leukemia
  GI50: > 100 µM
  TGI: > 100 µM
HCT-15 colon
  GI50: 0.109 µM
  TGI: > 100 µM
U251 CNS
  GI50: 0.41 µM
  TGI: 25.8 µM
ACHN renal
  GI50: 5.05 µM
  TGI: > 100 µM
UACC-62 melanoma
  GI50: 5.86 µM
  TGI: > 100 µM
PC-3 prostate
  GI50: 3.16 µM
  TGI: > 82.1 µM
HT29 colon
  GI50: 0.721 µM
  TGI: > 100 µM
NCI-H226 lung
  GI50: 19.5 µM
  TGI: > 100 µM
KM12 colon
  GI50: 1.93 µM
  TGI: > 100 µM
CAKI-1 renal
  GI50: 2.33 µM
  TGI: > 100 µM
SNB-19 CNS
  GI50: 5.58 µM
  TGI: > 100 µM
786-0 renal
  GI50: 2.58 µM
  TGI: > 100 µM
SNB-75 CNS
  GI50: 4.29 µM
  TGI: 46 µM
RPMI-8226 leukemia
  GI50: 7.5 µM
  TGI: > 100 µM
NCI-H23 lung
  GI50: > 70.1 µM
  TGI: > 100 µM
TK-10 renal
  GI50: 19.2 µM
  TGI: > 82.7 µM
UACC-257 melanoma
  GI50: 8.78 µM
  TGI: > 100 µM
HOP-62 NSCLC
  GI50: 10.8 µM
  TGI: 47.7 µM
MALME-3M melanoma
  GI50: 26.6 µM
  TGI: > 87 µM
DU-145 prostate
  GI50: 4.96 µM
  TGI: > 100 µM
MOLT-4 leukemia
  GI50: 0.451 µM
  TGI: > 100 µM
UO-31 renal
  GI50: 28.1 µM
  TGI: > 100 µM
SR leukemia
  GI50: 0.411 µM
  TGI: > 100 µM
SW-620 colon
  GI50: 1.4 µM
  TGI: > 100 µM
SN12C renal
  GI50: 26.2 µM
  TGI: > 100 µM
NCI-H522 lung
  GI50: 12.7 µM
  TGI: > 78.9 µM
LOX IMVI melanoma
  GI50: 0.309 µM
  TGI: > 100 µM
SF-539 CNS
  GI50: 1.67 µM
  TGI: > 100 µM
OVCAR-8 ovarian
  GI50: 0.739 µM
  TGI: > 60.1 µM
HCT-116 colon
  GI50: 0.434 µM
  TGI: > 100 µM
SF-295 CNS
  GI50: 2.77 µM
  TGI: > 55.2 µM
